Values quoted from earlier work in patent publication US20240277751A1, “CRYSTALLINE POLYMORPHIC FORMS OF STING AGONISTS ASSOCIATED WITH METAL IONS CAPABLE OF MODULATING AN IMMUNE RESPONSE” (priority 2020, published 2024).

For `Nc1ncnc2c1ncn2[C@@H]1O[C@@H]2COP(=O)([S-])O[C@@H]3[C@H](O)[C@@H](COP([O-])(=S)O[C@H]2[C@H]1O)O[C@H]3n1cnc2c(N)ncnc21.[Na+].[Na+]` (some centres unmarked) [MIW815], the “fraction entered the systemic circulation” value (1 hour after intratumor injection, phase I clinical trial) is given as “over 98%” and the half-life in serum (in vivo) is given as ~16 min.
